Experimental data reported in patent US20100216120A1, “Rapid infectious virus assay” (priority 2009, published 2010).

Assays:
[1] = system: infectious HIV from monocytes; test: Rapid Infectious Viral Assay (RIVA): virus release from monocytes on fibronectin-coated wells, TZM-bl reporter cell luciferase readout; format: cell-based, Human Immunodeficiency Virus (HIV); settings: ATP 1 mM
Description: The plates were then coated with fibronectin and BSA. 150 k CD8-depleted PBMCs were added on to a 96-well for 3 hrs followed by washings using RPMI 10%. ATP (1 mM) was then added in a volume of 100 ul for a 3 hrs at 37° C. TZMs (15K) were then added on to the wells the next day. 5 days later after launch, the supernatants were removed and steady-glo reagent was added on to the TZMs and read on a Spectramax.
ATP (1 mM) was then added in a volume of 100 ul for a 3 hrs at 37° C. TZMs (10K) were then added on to the wells. 4 days later after launch, the supernatants were removed and steady-glo reagent was added on to the TZMs and read on a Spectramax.
ATP (1 mM) was then added in a volume of 100 ul for a 3 hrs at 37° C. TZMs (10K) were then added on to the wells. 3 days later after launch, the supernatants were removed and steady-glo reagent was added on to the TZMs and read on a Spectramax.
ATP (1 mM) was then added in a volume of 100 ul for a 3 hrs at 37° C. TZMs (20K) were then added on to the wells. 3 days later after launch, the supernatants were removed and steady-glo reagent was added on to the TZMs and read on a Spectramax.
In a preferred embodiment, CD8-depleted PBMC were isolated from HIV-negative donors and HIV patients with VL<50 copies/ml using Dynal beads. Peripheral monocytes (CD14) were used in a rapid infectious assay using TZM-bl coculture technique. The inventors compare this shorter infection assay to classical method of PBMC activation with anti CD3/CD28 antibodies. Major CCR5 blockers were addressed. Presence of infectious virus was also investigated using FACS and rtPCR.
FIG. 2 illustrates a test of the ability of ATP (1 mM) to release infectious virus from monocytes in presence of fibronectin coating on to the tissue culture wells. The HIV infectivity was measured by measuring the RLU on a Spectramax M5 plate readert.
1. A 96 well plate (a 48 well can be used) is coated with 100 ul RPMI containing fibronectin (50 ug/ml) in BSA (0.5%) for 30 minutes at room temperature.
2. CD8-depleted PBMC's which have been frozen at 2 million cells per ml and stored at −80 C in 22% FBS and 10% DMSO are thawed quickly and about 100 ul containing 200 k cells are added to the wells immediately
3. Let cells of interest attach for 2 hours (longer even overnight up to 20 hrs can be used)
4. Remove all the media which contains non-adherent cells and wash with 200 ul of RPMI with 10% FBS, pipetting gently, removing this wash media. The adherent monocytes remain.
5. […]
7. Finally quantitate how much viral infection has occurred by reading luciferase production using Steady Glow reagent (Promega) and a luminometer/spectrophotometer. […]

[2] = system: infectious HIV from monocytes; test: ATP-triggered release of infectious virus from CD8-depleted PBMC monocytes, TZM reporter cell luciferase readout, no fibronectin coating; format: cell-based, Human Immunodeficiency Virus (HIV); settings: ATP 1-5 mM, absence of fibronectin coating, 200 k CD8-depleted PBMCs, 3 days; HIV-positive vs negative individuals
Description: ATP (1 mM) was then added in a volume of 100 ul for a 3 hrs at 37° C. TZMs (10K) were then added on to the wells in 100 ul in RPMI 10%. After 3 days later, the supernatants were removed and steady-glo reagent was added on to the TZMs and read on a Spectramax.
The inventors tested the ability of ATP (1-5 mM) to release infectious virus from monocytes in absence of fibronectin coating on to the tissue culture wells. […] Further differentiation and/or activation is useful to enhance virus release.

SMILES: Nc1ncnc2c1ncn2[C@@H]1O[C@H](COP(=O)(O)OP(=O)(O)OP(=O)(O)O)[C@@H](O)[C@H]1O [ATP]
- release of infectious virus from monocytes (RLU on TZMs) ([1]; fibronectin and BSA coating, 100 k CD8-depleted PBMCs O/N, 3-day assay (Format #3)): triggers the release of the virus
- release of infectious virus from monocytes (RLU on TZMs) ([1]; fibronectin and BSA coating, 100 k CD8-depleted PBMCs O/N, 4-day assay (Format #2)): triggers the release of the virus
- release of infectious virus from monocytes (RLU on TZMs) ([1]; fibronectin and BSA coating, 225 k cells, 48-well, 4-day assay (Format #4)): triggers the release of the virus
- release of infectious virus from monocytes (RLU on TZMs) ([1]; fibronectin coating, 150 k CD8-depleted PBMCs, 5 day assay (Format #1)): capable of triggering release of viral particles from monocytes
- release of infectious virus from monocytes (RLU on TZMs) [2]: incapable of triggering release of viral particles from monocytes
